Experimental data taken from patent publication US10081632B2, “Substituted tetrahydropyrido[3′,2′:4,5]pyrrolo[1,2-α]pyrazine-2-carboxamides as RSK inhibitors” (Phoenix Molecular Designs, priority 2016, dated 2018).

Columns and labels:
[1] = system: 4T1 cells; experiment: Monolayer growth inhibition, Alamar blue assay; assay type: cell-based; details: Mus musculus, 5 days, single dose on day 1
Source text: (§1) In all instances a single dose was given on day 1 of the experiment.

[2] = system: HCC1143 cells; experiment: Monolayer growth inhibition, Alamar blue assay; assay type: cell-based; details: Homo sapiens, 5 days, single dose on day 1
Source text: as §1

[3] = system: HCC1937 cells; experiment: Monolayer growth inhibition, Alamar blue assay; assay type: cell-based; details: Homo sapiens, 5 days, single dose on day 1
Source text: as §1

[4] = system: JIMT-1 cells; experiment: Monolayer growth inhibition, Alamar blue assay; assay type: cell-based; details: Homo sapiens, 5 days, single dose on day 1
Source text: as §1

[5] = system: MDA-MB-231 cells; experiment: Monolayer growth inhibition, Alamar blue assay; assay type: cell-based; details: Homo sapiens; MDA-MB-231 (TNBC), 5 days, single dose on day 1
Source text: as §1

[6] = system: MDA-MB-435 cells; experiment: Monolayer growth inhibition, Alamar blue assay; assay type: cell-based; details: Homo sapiens, 5 days, single dose on day 1
Source text: as §1

[7] = system: MDA-MB-468 cells; experiment: Monolayer growth inhibition, Alamar blue assay; assay type: cell-based; details: Homo sapiens, 5 days, single dose on day 1
Source text: as §1

[8] = system: PC3 cells; experiment: Monolayer growth inhibition, Alamar blue assay; assay type: cell-based; details: Homo sapiens, PC-3; PC3 (Prostate), 5 days, single dose on day 1
Source text: as §1

[9] = system: SUM149 cells; experiment: Monolayer growth inhibition, Alamar blue assay; assay type: cell-based; details: Homo sapiens, 5 days, single dose on day 1
Source text: as §1

[10] = system: SUM149-PTXR cells; experiment: Monolayer growth inhibition, Alamar blue assay; assay type: cell-based, Human; details: Homo sapiens; SUM149-PTXR (TNBC, BRCA Mutant), 5 days, single dose on day 1
Source text: as §1

[11] = system: T47D cells; experiment: Monolayer growth inhibition, Alamar blue assay; assay type: cell-based, Human; details: Homo sapiens, T47D (ER/PR), 5 days, single dose on day 1
Source text: as §1

[12] = system: All cell lines; experiment: Monolayer growth inhibition, Alamar blue assay, range over all cell lines; assay type: cell-based; details: 120 h; range of IC50 over all cell lines of the table; read-out: IC50 Values - Alamar Blue (5 Days), Range, All
Source text: as §1

[13] = system: HCC1937 cells; experiment: Monolayer growth inhibition, crystal violet assay; assay type: cell-based; details: Homo sapiens, 5 days, single dose on day 1
Source text: (§2) In all instances a single dose was given on day 1 of the experiment. […] Complete (100%) growth suppression was achievable with several of the compounds in multiple different cell lines.

[14] = system: JIMT-1 cells; experiment: Monolayer growth inhibition, crystal violet assay; assay type: cell-based; details: Homo sapiens, 5 days, single dose on day 1
Source text: as §2

[15] = system: MDA-MB-468 cells; experiment: Monolayer growth inhibition, crystal violet assay; assay type: cell-based; details: Homo sapiens, 5 days, single dose on day 1
Source text: as §2

[16] = system: T47D cells; experiment: Monolayer growth inhibition, crystal violet assay; assay type: cell-based; details: Homo sapiens, T47D (ER/PR), 5 days, single dose on day 1
Source text: as §2

[17] = system: 4T1 cells; experiment: Monolayer growth inhibition, crystal violet assay; assay type: cell-based; details: Mus musculus, 5 days, single dose on day 1
Source text: as §1

[18] = system: HCC1143 cells; experiment: Monolayer growth inhibition, crystal violet assay; assay type: cell-based; details: Homo sapiens, 5 days, single dose on day 1
Source text: as §1

[19] = system: MDA-MB-231 cells; experiment: Monolayer growth inhibition, crystal violet assay; assay type: cell-based; details: Homo sapiens; MDA-MB-231 (TNBC), 5 days, single dose on day 1
Source text: as §1

[20] = system: MDA-MB-435 cells; experiment: Monolayer growth inhibition, crystal violet assay; assay type: cell-based; details: Homo sapiens; MDA-MB-435 (Melanoma), 5 days, single dose on day 1
Source text: as §1

[21] = system: PC3 cells; experiment: Monolayer growth inhibition, crystal violet assay; assay type: cell-based; details: Homo sapiens, PC-3; PC3 (Prostate), 5 days, single dose on day 1
Source text: as §1

[22] = system: SUM149 cells; experiment: Monolayer growth inhibition, crystal violet assay; assay type: cell-based; details: Homo sapiens, 5 days, single dose on day 1
Source text: as §1

[23] = system: SUM149-PTXR cells; experiment: Monolayer growth inhibition, crystal violet assay; assay type: cell-based; details: Homo sapiens; SUM149-PTXR (TNBC, BRCA Mutant), 5 days, single dose on day 1
Source text: as §1

[24] = system: All cell lines; experiment: Monolayer growth inhibition, crystal violet assay, range over all cell lines; assay type: cell-based; details: 120 h; range of IC50 over all cell lines of the table; read-out: IC50 Values - Crystal Violet (5 Days), Range, All
Source text: as §2

[25] = system: 4T1 cells; experiment: Soft agar growth inhibition assay; assay type: cell-based; details: Mus musculus, 4T1, 240 h, 4T1, 10 days; read-out: IC50 Values, 10 Days, Soft Agar
Protocol: Two agar (Alfa Aesar) solutions (0.8% w/v and 0.4% w/v) were prepared in ultrapure water. The 0.8% agar solution was mixed in equal volumes with 2× media previously prepared from powder (Life Technologies) following the manufacturer's instructions and filter sterilized. The 0.8% agar and media solution was added to 24 well plates (Mandel Scientific) at 500 μl per well. The plates were placed in a humidified incubator at 37° C. with 5% CO2. Next, the 0.4% agar solution was mixed in equal volumes with 2× media. Breast cancer cell lines were added to this solution to achieve a final concentration of 2×10^4 cells per well and […] was added to each well on top of the bottom agar and media layer. […] The plates were returned to the incubator for 10-32 days, with a re-dosing of compounds or DMSO every 7 days. After 10-32 days, colonies were counted in 3 different fields of view for each well.
Representative compounds described herein were tested in the soft agar growth inhibition assay against the 4T1 breast cancer cell line.

[26] = system: CD34+ cells; experiment: Colony forming unit hematopoietic stem cell assay; assay type: cell-based, human; details: Homo sapiens, Hematopoietic stem cell, 336 h, CD34+ HSC, 14 days; read-out: IC50 Values - 14 days, CFU Assay
Protocol: The hematopoietic colony forming cell assay was conducted based on a protocol outlined by StemCell Technologies. […] Following the addition of CD34^+ cells isolated from human cord blood or peripheral blood (StemCell Technologies) at a final concentration of 5×10^2 cells per dish, the tubes were vortexed and allowed to stand for 5 minutes at room temperature. Next, the MethoCult mixtures were dispensed into 35 mm dishes (Corning Incorporated) through blunt end needles (StemCell Technologies) and 5 ml syringes (BD Biosciences) at a volume of 1.1 ml per dish. The medium was evenly distributed across the surface of each dish by gentle tilting and rotation. The dishes were then placed in a 100 mm culture dish (Grenier Bio-One) containing additional 35 mm dishes with sterile water to maintain humidity. […] The number of myeloid and erythroid derived colonies in both the treated and control dishes were counted and compared.

[27] = HCC1937, HCC1937 (TNBC, BRCA Mutant)
[28] = SUM149, SUM149 (TNBC, BRCA Mutant)

Compound: C[C@@H]1CNC(=O)c2cc3ccc(NC(=O)c4cnn(Cc5cccc(N)c5)c4)nc3n21 [Compound 19, (R)-1-(3-aminobenzyl)-N-(9-methyl-6-oxo-6,7,8,9-tetrahydropyrido[3′,2′:4,5]pyrrolo[1,2-a]pyrazin-2-yl)-1H-pyrazole-4-carboxamide]
- IC50 ([1]; 4T1 (TNBC)): 20.6 ± 2.5 µM
- IC50 ([2]; HCC1143 (TNBC)): 11.5 ± 3.6 µM
- IC50 ([3]; HCC1937 (TNBC, BRCA Mutant)): 16.6 ± 11.5 µM
- IC50 ([4]; JIMT-1 (HER2)): 37.3 ± 9 µM
- IC50 [5]: 25.6 ± 1.5 µM
- IC50 ([6]; MDA-MB-435 (Melanoma)): 10.5 ± 2.2 µM
- IC50 ([7]; MDA-MB-468 (TNBC)): 14.7 ± 4.1 µM
- IC50 [8]: 17.1 ± 8.7 µM
- IC50 ([9]; SUM149 (TNBC, BRCA Mutant)): 15.8 ± 6.4 µM
- IC50 [10]: 14.1 ± 4.3 µM
- IC50 [11]: 13.5 ± 4.6 µM
- IC50 [12]: 10.5 to 37.3 µM
- IC50 ([13]; HCC1937 (TNBC, BRCA Mutant)): 19.9 ± 8.7 µM
- IC50 ([14]; JIMT-1 (HER2)): 34 ± 12.8 µM
- IC50 ([15]; MDA-MB-468 (TNBC)): 7.4 ± 1 µM
- IC50 [16]: 7.7 ± 1.5 µM
- IC50 ([17]; 4T1 (TNBC)): 15.8 ± 4.8 µM
- IC50 ([18]; HCC1143 (TNBC)): 13.8 ± 4.3 µM
- IC50 [19]: 17.2 ± 1.9 µM
- IC50 [20]: 10.3 ± 3.5 µM
- IC50 [21]: 14.9 ± 6.6 µM
- IC50 ([22]; SUM149 (TNBC, BRCA Mutant)): 11.1 ± 3.9 µM
- IC50 [23]: 13 ± 1.3 µM
- IC50 [24]: 7.4 to 34 µM

Compound: C[C@@H]1CNC(=O)c2cc3ccc(C(=O)Nc4cnn(Cc5ccccc5N)c4)nc3n21 [Compound 17, (R)—N-(1-(2-aminobenzyl)-1H-pyrazol-4-yl)-9-methyl-6-oxo-6,7,8,9-tetrahydropyrido[3′,2′:4,5]pyrrolo[1,2-a]pyrazine-2-carboxamide]
- IC50 ([1]; 4T1 (TNBC)): 3.8 ± 1.7 µM
- IC50 ([2]; HCC1143 (TNBC)): 5 ± 1.7 µM
- IC50 ([3]; HCC1937 (TNBC, BRCA Mutant)): 6.8 ± 1.3 µM
- IC50 ([4]; JIMT-1 (HER2)): 12.6 ± 5.9 µM
- IC50 [5]: 10.3 ± 0.7 µM
- IC50 ([6]; MDA-MB-435 (Melanoma)): 1.2 ± 1 µM
- IC50 ([7]; MDA-MB-468 (TNBC)): 2.1 ± 1.1 µM
- IC50 [8]: 6 ± 3.2 µM
- IC50 ([9]; SUM149 (TNBC, BRCA Mutant)): 8.3 ± 4.9 µM
- IC50 [10]: 4.2 ± 1.5 µM
- IC50 [11]: 5.7 ± 2.1 µM
- IC50 [12]: 1.2 to 12.6 µM
- IC50 ([13]; HCC1937 (TNBC, BRCA Mutant)): 7.3 ± 3.2 µM
- IC50 ([14]; JIMT-1 (HER2)): 7.4 ± 2.5 µM
- IC50 ([15]; MDA-MB-468 (TNBC)): 1.6 ± 0.7 µM
- IC50 [16]: 6.7 ± 1.6 µM
- IC50 ([17]; 4T1 (TNBC)): 2 ± 0.6 µM
- IC50 ([18]; HCC1143 (TNBC)): 8.9 ± 3.2 µM
- IC50 [19]: 5.1 ± 2 µM
- IC50 [20]: 1 ± 0.3 µM
- IC50 [21]: 2.7 ± 1.2 µM
- IC50 ([22]; SUM149 (TNBC, BRCA Mutant)): 5.3 ± 2.2 µM
- IC50 [23]: 5.2 ± 0.6 µM
- IC50 [24]: 1 to 8.9 µM

Compound: C[C@@H]1CNC(=O)c2cc3ccc(NC(=O)c4cnn(Cc5ccccc5)c4)nc3n21 [Compound 15, (R)-1-benzyl-N-(9-methyl-6-oxo-6,7,8,9-tetrahydropyrido[3′,2′:4,5]pyrrolo[1,2-a]pyrazin-2-yl)-1H-pyrazole-4-carboxamide]
- IC50 ([1]; 4T1, 4T1 (TNBC)): 8.8 ± 2.1 µM
- IC50 ([2]; HCC1143, HCC1143 (TNBC)): 3.6 ± 2.7 µM
- IC50 [3, 27]: 9.7 ± 3.9 µM
- IC50 ([4]; JIMT-1, JIMT-1 (HER2)): 8.3 ± 1.8 µM
- IC50 ([6]; MDA-MB-435, MDA-MB-435 (Melanoma)): 13.7 ± 3.4 µM
- IC50 ([7]; MDA-MB-468, MDA-MB-468 (TNBC)): 13.3 ± 4.1 µM
- IC50 [8]: 11.5 ± 3.4 µM
- IC50 [9, 28]: 11.7 ± 2.8 µM
- IC50 [10]: 9.2 ± 3 µM
- IC50 ([11]; T47D): 7.8 ± 3.7 µM
- IC50 [12]: 3.6 to 21.3 µM
- IC50 [13, 27]: 12 ± 0.2 µM
- IC50 ([14]; JIMT-1, JIMT-1 (HER2)): 11.2 ± 0.2 µM
- IC50 ([15]; MDA-MB-468, MDA-MB-468 (TNBC)): 11.3 ± 0.7 µM
- IC50 ([16]; T47D): 8.5 ± 0.7 µM
- IC50 ([17]; 4T1, 4T1 (TNBC)): 6.9 ± 3 µM
- IC50 ([18]; HCC1143, HCC1143 (TNBC)): 12.6 ± 3.4 µM
- IC50 [20]: 8.2 ± 2.5 µM
- IC50 [21]: 5.9 ± 1.4 µM
- IC50 [22, 28]: 9.9 ± 3.1 µM
- IC50 [23]: 8.8 ± 2.2 µM
- IC50 [24]: 5.9 to 21 µM
- IC50 [25]: 3.8 µM
- IC50 [26]: 23.8 µM
